Patent publication US10610522B2, “Methods for retreating irritable bowel syndrome (IBS)” (Salix Pharmaceuticals, Inc., priority 2014, dated 2020)
Where “and” joins values, the source holds several entries; their conditions need not be identical. Identical values can stand only once.

Test system: non-constipation IBS
Assay: Study 1 (TARGET 1): rifaximin 550 mg TID 14 days vs placebo in non-C IBS, 10-week follow-up
Format: in vivo, human
Source text: A measure of efficacy is based on subjects' answers to the Weekly Subject Global Assessment (SGA) questions over the study duration in relation to their IBS symptoms.
Additionally subjects having a stool consistency score of <4 and at least a 1 point reduction in average daily IBS score were identified. […]
In TARGET 1 and 2, the primary endpoint was the proportion of patients who achieved adequate relief of IBS symptoms for at least 2 of 4 weeks during the month following 14 days of treatment. Adequate relief was defined as a response of “yes” to the following weekly Subject Global Assessment (SGA) question: “In regards to your IBS symptoms, compared to the way you felt before you started study medication, have you, in the past 7 days, had adequate relief of your IBS symptoms? [Yes/No]”
The key secondary endpoint was the proportion of patients who achieved adequate relief of IBS-related bloating for at least 2 of 4 weeks during the month following 2 weeks of treatment. Adequate relief of IBS-related bloating was defined as a response of “yes” to the following weekly (every 7 days) SGA question: “In regards to your IBS symptom of bloating, compared to the way you felt before you started study medication, have you, in the past 7 days, had adequate relief of your IBS symptom of bloating?
The trials examined a composite endpoint which defined responders by IBS-related abdominal pain and stool consistency measures. Patients were responders if they experienced a ≥30% decrease from baseline in abdominal pain for ≥2 weeks during the month following 2 weeks of treatment. […] Patients were monthly responders if they met criteria for BOTH abdominal pain and stool consistency ≥2 weeks per month. […] (See Table 60.)

[1] = Study 1, at least 2 weeks during PEP
[2] = TARGET 1, month following two weeks of treatment, 550 mg TID, N = 309

For `CO[C@H]1/C=C/O[C@@]2(C)Oc3c(C)c(O)c4c(O)c(c5c(nc6cc(C)ccn65)c4c3C2=O)NC(=O)/C(C)=C\C=C\[C@H](C)[C@H](O)[C@@H](C)[C@@H](O)[C@@H](C)[C@H](OC(C)=O)[C@@H]1C` [Rifaximin, (2S,16Z,18E,20S,21S,22R,23R,24R,25S,26S,27S,28E)-5,6,21,23,25 Pentahydroxy-27-methoxy-2,4,11,16,20,22,24,26-octamethyl-2,7-(epoxypentadeca-(1,11,13)trienimino) benzofuro (4,5-e) pyrido(1,2-a) benzimidazole-1,15(2H)-dione,25-acetate], the “IBS symptom of bloating: adequate relief at least 2 out of 4 weeks during weeks 3 through 6 (weekly question)” value (Study 1 / TARGET 1) was 40%, the “Global IBS symptoms: adequate relief at least 2 out of 4 weeks during weeks 3 through 6 (weekly question)” value (Study 1 / TARGET 1, 550 mg TID 14 d) was 41% and 31% vs 41% and the “Responders: abdominal pain reduction of 1 point in weekly mean” value [1] was 52%. The “Responders: abdominal pain reduction of 1 point in weekly median” value [1] was 63%, the “Responders: abdominal pain reduction of 2 point in mean” value [1] was 26% and the “Responders: abdominal pain reduction of 2 point in median” value [1] was 37%. The “Responders: abdominal pain reduction of 3 point in mean” value [1] was 6% vs 7%, the “Responders: abdominal pain reduction of 3 point in median” value [1] was 22% and the “Responders: daily abdominal pain < 2 for at least 50% of days in a week” value [1] was 40%. For the same compound, the “Responders: overall reduction of mean weekly abdominal pain by >= 25%” value [1] was 56%, the “Responders: overall reduction of mean weekly abdominal pain by >= 50%” value [1] was 36% and the “Responders: overall reduction of mean weekly abdominal pain by >= 75%” value [1] was 14%. For the same compound, the “Responders: overall reduction of median weekly abdominal pain by >= 25%” value [1] was 63%, the “Responders: overall reduction of median weekly abdominal pain by >= 50%” value [1] was 44% and the “Responders: overall reduction of median weekly abdominal pain by >= 75%” value [1] was 23%. The “Abdominal Pain Responders: %” value [2] was 51%, the “Abdominal Pain Responders: n” value [2] was 159 and the “Abdominal Pain and Stool Consistency Responders: %” value [2] was 47%. For the same compound, the “Abdominal Pain and Stool Consistency Responders: n” value [2] was 144, the “Adequate Relief of IBS Symptoms: %” value [2] was 41% and the “Adequate Relief of IBS Symptoms: n” value [2] was 126. For the same compound, the “Adequate Relief of IBS-Related Bloating: %” value [2] was 40%, the “Adequate Relief of IBS-Related Bloating: n” value [2] was 122 and the “Stool Consistency Responders: %” value [2] was 79%. The “Stool Consistency Responders: n” value [2] was 244 and the “Monthly responders for abdominal pain (≥30% decrease) and stool consistency (score <4)” value (TARGET 1, ≥2 weeks in month following 2 weeks of treatment) was 47%.
